Active and inactive are the calls of the source. The rule behind the calls is not given here. Numbered stars: 1 amine (or outer) side, 2 acyl side, 3 side chain; on linkers, the order of the positions; unused ones are H or OH. Bridge positions count the residues as written; N and C are the ends. Square brackets hold non-standard residues; d marks the D form. Peptide text beside a SMILES is read from it. * marks the point of attachment. pTerphenylCO(4''-OnC5H11) = CCCCCOc1ccc(-c2ccc(-c3ccc(C(=O)*)cc3)cc2)cc1; Orn(4R-OH,5R-OH) = O=C([C@H](C[C@@H](O)[C@@H](O)N[*:3])N[*:1])[*:2]; hTyr(3S-OH,4S-OH) = N[C@H](C(=O)O)[C@H](O)[C@@H](O)c1ccc(O)cc1; Pro(3S-OH,4S-Me) = C[C@H]1CN[C@H](C(=O)O)[C@H]1O; Hyp = O=C(O)[C@@H]1C[C@@H](O)CN1

The source of these data is ChEMBL document CHEMBL1255421, “In vitro fungicidal activities of echinocandins against Candida metapsilosis, C. orthopsilosis, and C. parapsilosis evaluated by time-kill studies” (2010).

Experiment [1] concerns Candida orthopsilosis. Description: Antifungal activity against Candida orthopsilosis clinical isolate bloodstream form assessed as induction of maximal fungal death at 1 mg/L after 48 hrs by time-kill assay. In kind it is functional, organism-based.
In experiment [2] the test system is Candida parapsilosis. Description: Antifungal activity against Candida parapsilosis clinical isolate bloodstream form assessed as induction of maximal fungal death at 8 mg/L after 48 hrs by time-kill assay. In kind it is functional, organism-based.
Experiment [3] relates to Candida metapsilosis. Description: Antifungal activity against Candida metapsilosis clinical isolate bloodstream form assessed as induction of miniparadoxical effect at 16 mg/L after 48 hrs by time-kill assay. It counts as functional, organism-based.
For experiment [4], the system named is Candida metapsilosis. Description: Antifungal activity against Candida metapsilosis clinical isolate bloodstream form assessed as induction of maximal fungal death at 16 mg/L after 48 hrs by time-kill assay. In kind it is functional, organism-based.
Experiment [5] concerns Candida orthopsilosis. Description: Antifungal activity against Candida orthopsilosis clinical isolate bloodstream form assessed as induction of miniparadoxical effect at 16 mg/L after 48 hrs by time-kill assay. It counts as functional, organism-based.
Experiment [6] concerns Candida orthopsilosis. The experiment in a line: Antifungal activity against Candida orthopsilosis clinical isolate bloodstream form assessed as minimum concentration required for => 3-log decrease in fungal growth after 12 to 48 hrs by time-kill assay. In kind it is functional.
Experiment [7] has as its system Candida parapsilosis. The experiment in a line: Antifungal activity against Candida parapsilosis clinical isolate bloodstream form assessed as induction of miniparadoxical effect at 16 mg/L after 48 hrs by time-kill assay. It counts as functional, organism-based.

In the case of `CCCCCOc1ccc(-c2ccc(-c3ccc(C(=O)N[C@H]4C[C@@H](O)[C@@H](O)NC(=O)[C@@H]5[C@@H](O)[C@@H](C)CN5C(=O)[C@H]([C@@H](C)O)NC(=O)[C@H]([C@H](O)[C@@H](O)c5ccc(O)cc5)NC(=O)[C@@H]5C[C@@H](O)CN5C(=O)[C@H]([C@@H](C)O)NC4=O)cc3)cc2)cc1` [ANIDULAFUNGIN] ({pTerphenylCO(4''-OnC5H11)}-[Orn(4R-OH,5R-OH)]T[Hyp][hTyr(3S-OH,4S-OH)]T[Pro(3S-OH,4S-Me)]; lactam 1-C), the result with Candida orthopsilosis [1] and with Candida parapsilosis [2] was Active.

Consider `CC[C@H](C)C[C@H](C)CCCCCCCCC(=O)N[C@H]1C[C@@H](O)[C@@H](NCCN)NC(=O)[C@@H]2[C@@H](O)CCN2C(=O)[C@H]([C@H](O)CCN)NC(=O)[C@H]([C@H](O)[C@@H](O)c2ccc(O)cc2)NC(=O)[C@@H]2C[C@@H](O)CN2C(=O)[C@H]([C@@H](C)O)NC1=O` [CASPOFUNGIN], for which the result with Candida metapsilosis [3], in the experiment on Candida metapsilosis [4], with Candida orthopsilosis [5] and with Candida parapsilosis [7] was Active. Also, the MED in the experiment on Candida orthopsilosis [6] is 14 mg/L.
